Reference: publication PMC10644342, “Improved Antibacterial Activity of 1,3,4-Oxadiazole-Based Compounds That Restrict Staphylococcus aureus Growth Independent of LtaS Function” (ACS Infectious Diseases, 2023)

System: Pseudomonas aeruginosa strain PAO1
Test: Growth inhibition in combination with PAβN
Assay type: cell-based
Settings: 32 μg/mL compound with 100 μg/mL PAβN
Experimental: Phenylalanine-arginine β-naphthylamide (PAβN) is a well-studied efflux pump inhibitor, which can also permeabilize the outer membrane of Gram-negative organisms.[40] […] Without the addition of PAβN (0 μg/mL), neither 1771 nor 13 had any growth inhibitory activity at concentrations up to 64 μg/mL. With the addition of 25 μg/mL of PAβN, the E. coli strain K12 could still grow in the presence of 64 μg/mL of 1771 or 13; however, the growth rate was severely impacted in a dose-dependent manner. […] To further evaluate the Gram-negative coverage of 1771 and 13, we also tested 1771 or 13 in combination with PAβN against Pseudomonas aeruginosa strain PAO1, Klebsiella pneumoniae strain 699 (clinical isolate), and Acinetobacter baumannii strain DF1000 (clinical isolate) (Figure S6a–c).
Figure S6. Permeabilization of the outer membrane renders Gram-negative bacteria susceptible to 1771 and compound 13. Bacterial growth curves of A) Klebsiella pneumoniae, B) Acinetobacter baumannii and C) Pseudomonas aeruginosa against 1771 and 13 (0 – 64 µg/ml) in combination with 0, 25, 50, 100 µg/ml of PAβN. The bacterial growth (OD 600nm) was […]
(1 picture or pasted object on this page, not shown here)

SMILES: O=C(COC(=O)Cc1coc2ccc3ccccc3c12)Nc1nnc(-c2ccc(S(F)(F)(F)(F)F)cc2)o1 [Compound 13, 2-Oxo-2-((5-(4-(pentafluoro-l6-sulfaneyl)phenyl)-1,3,4-oxadiazol-2-yl)amino)ethyl 2-(Naphtho[2,1-b]furan-1-yl)acetate]
- growth of PAO1: severely inhibited
